Our source for the TGI and GI50 values is PubChem BioAssay (NCI).

Holding throughout (experiment): NCI-60 cell line screen, 48 h
Assay [1] concerns HCT-116 colon.
In assay [2] the test system is T-47D breast.
The subject of assay [3] is 786-0 renal.
For assay [4], the system named is NCI-H460 lung.
In assay [5] the test system is U251 CNS.
Assay [6] has as its system OVCAR-3 ovarian.
The test system of assay [7] is SK-OV-3 ovarian.
For assay [8], the system named is SR leukemia.
The subject of assay [9] is TK-10 renal.
For assay [10], the system named is HOP-92 NSCLC.

Values joined by “and” are separate entries in the source; they are usually repeats but may differ in a detail not shown here. Identical values can stand only once.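 Compound exposure: 48 hours, 5 concentrations, 96-well plates. At the GI50, growth is halved. Definition used: TGI = concentration required for complete inhibition of growth.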

Consider `O=C(O)c1ccccc1NCn1c(=S)sc2ccccc21`, for which the TGI is over 100 µM in [1]; over 100 µM in assay [2]; over 100 µM in [3]; 48.5 µM in assay [4]; over 100 µM in assay [5]; over 100 µM in [6]. The TGI in assay [7] was over 100 µM; in [8], 81.6 µM; in assay [9], over 100 µM; in assay [10], over 100 µM.

As for `C=C1CC[C@H]2C(C)=CC[C@H]3C(=C)C(=O)O[C@@H]3[C@@H]12`, the TGI in assay [1], in assay [2], in assay [3], in assay [4], in assay [5] and in assay [7] was over 100 µM throughout. Besides, the TGI in [8], in assay [9] and in assay [10] was over 100 µM each time.

For `OCCN(CO)CO`, the TGI in [1], in assay [2], in assay [3], in assay [4], in [5] and in assay [6] was over 100 µM throughout. For the same compound, the TGI in assay [7], in [9] and in assay [10] was over 100 µM in each case.

On to `CSC1=Nc2c(c(C)c(-c3ccccc3)n2COC(CO)CO)C2=NC(=O)CC(C)N12` (centres undefined), for which the GI50 in assay [1], in [2], in assay [3], in assay [4], in assay [5] and in assay [6] was over 100 µM throughout. In addition, the GI50 in [7], in assay [8], in [9] and in [10] was over 100 µM throughout. Also, the TGI in assay [1], in [2], in [3], in assay [4], in assay [5] and in assay [6] was over 100 µM throughout. For the same compound, the TGI in assay [7], in [8], in assay [9] and in assay [10] was over 100 µM in each case.

On to `C=CC(=O)Nc1cc2c(Nc3ccc(F)c(Cl)c3)ncnc2cc1C#CC(C)(C)N1CCN(C)CC1`, for which the GI50 in assay [1] is 1.52 µM; in assay [2], 0.752 µM; in assay [3] it was 1.31 µM; in assay [4], 2.91 µM; in assay [5] it was 2.66 µM; in assay [6] it was 1.13 µM. Besides, the GI50 in assay [7] is 0.953 µM; in assay [8], 0.746 µM; in assay [9], 0.0522 µM; in assay [10] it was 0.29 µM. The TGI came out at 3.01 µM in [1]; 5.32 µM in assay [2]; 2.82 µM in [3]; 6.69 µM in assay [4]; 5.48 µM in assay [5]; 2.85 µM in [6]. The TGI in [7] was 4.59 µM; in [8], 5.61 µM; in assay [9], 2.03 µM; in assay [10] it was 1.78 µM.

`COc1ccc(C2NC(=S)NC3=C2CCOc2c3ccc3ccccc23)cc1` (centres undefined): the GI50 was 8.5 µM in assay [2]; over 100 µM in assay [3]; 7.88 µM in assay [4]; over 100 µM in [5]; 51.5 µM in assay [6]; over 100 µM in [7]. The GI50 in assay [8] was 7.27 µM; in assay [9] it was over 100 µM; in assay [10], 77.1 µM. Further, the TGI in assay [2], in [3], in assay [4], in [5], in assay [6] and in [7] was over 100 µM in each case. In addition, the TGI in assay [8], in assay [9] and in assay [10] was over 100 µM in each case.

As for `COc1ccccc1NC(=O)C1=C(C)NC(C)=C(C(=O)Nc2ccccc2OC)C1c1ccco1`, the TGI in assay [1] was 37.4 µM; in assay [2] it was over 100 µM; in assay [3] it was over 77 µM; in assay [4] it was over 43.9 µM; in assay [5], 47 µM; in assay [6] it was 9.02 µM. The TGI is over 76.3 µM in assay [7], 15.3 µM in assay [8], over 79.7 µM in assay [9] and 24.2 µM in assay [10].

With `CC[C@H]1OC(=O)[C@H](C)[C@@H](O[C@H]2C[C@@](C)(OC)[C@@H](O)[C@H](C)O2)[C@H](C)[C@@H](O[C@@H]2O[C@H](C)C[C@H](N(C)C)[C@H]2O)[C@](C)(OC)C/C(C)=C2/O[C@@]1(C)C=C2C`, the GI50 in assay [1] was 1.93 µM; in [2], 1.96 µM; in [3], 1.64 µM; in [4], 1.81 µM; in assay [5], 1.75 µM; in assay [6] it was 1.76 µM. Besides, the GI50 is 1.91 µM in assay [7], 1.97 µM in assay [8], 1.72 µM in assay [9] and 1.57 µM in [10]. The TGI in assay [1] was 4.36 µM; in assay [2] it was 4.56 µM; in assay [3], 3.16 µM; in assay [4] it was 3.35 µM; in assay [5], 3.54 µM; in [6], 3.28 µM. Moreover, the TGI came to 3.75 µM in [7], 5.09 µM in assay [8], 3.32 µM in assay [9] and 3.82 µM in assay [10].

Turning to `O=NNc1ccc(S(=O)(=O)c2ccc3ccccc3c2)cn1`, the TGI in [1], in [2], in assay [3], in assay [4], in assay [5] and in assay [6] was over 100 µM in each case. Also, the TGI in [7], in assay [8] and in assay [9] was over 100 µM in each case.

In the case of `N#Cc1cc(S(=O)(=O)Nc2nc3cc(Cl)ccc3o2)c(SCc2ccccc2)cc1Cl`, the GI50 in assay [1] is 15.4 µM; in assay [2], 15.9 µM; in assay [3], 15.7 µM; in assay [4], 15.3 µM; in [5], 13.4 µM; in [6], 13.5 µM. In addition, the GI50 in assay [8] was 15.2 µM; in assay [9], 14.8 µM; in assay [10] it was 10.5 µM. Besides, the TGI in [1] amounted to 28.7 µM; in assay [2], 30.6 µM; in [3], 29.1 µM; in [4], 28.6 µM; in assay [5] it was 26.2 µM; in [6], 26.4 µM. The figures for the TGI in [8], in assay [9] and in [10] were 28.5 µM, 28 µM and 23.5 µM, respectively.

As for `OCC(O)C(O)C(O)C(O)c1nnc2c(-c3ccccc3)nc3ccccc3n12` (centres undefined), the GI50 in assay [1] is over 100 µM; in assay [2] it was 28.6 µM; in assay [3] it was over 100 µM; in assay [4] it was over 100 µM; in assay [5], over 100 µM; in assay [6] it was over 100 µM. Besides, the GI50 is over 100 µM in assay [7], 29.2 µM in assay [9] and over 100 µM in [10]. Also, the TGI in [1], in assay [2], in assay [3], in assay [4], in assay [5] and in assay [6] was over 100 µM each time. The TGI in [7], in assay [9] and in assay [10] was over 100 µM in each case.

`CC(=O)OCC1OC(n2c3c(cc(C#N)c2=S)CCCC3)C(OC(C)=O)C(OC(C)=O)C1OC(C)=O` (centres undefined): the GI50 in assay [1] was over 93.3 µM; in assay [2], over 100 µM; in assay [3] it was > 100 µM and 26.9 µM; in [5] it was > 100 µM and 21.9 µM; in assay [6] it was 45.2 µM and > 100 µM; in [8], 32.4 µM and > 100 µM. In addition, the GI50 in assay [10] was > 100 µM and 32.4 µM. For the same compound, the TGI is over 100 µM in assay [1]; over 100 µM in [2]; over 100 µM in assay [3]; over 100 µM in [4]; > 100 µM and 53 µM in assay [5]; over 100 µM in [6]. Besides, the TGI in [8], in [9] and in assay [10] was over 100 µM each time.

With `Nc1ncc2ncn(C3CCC(CO)O3)c2n1` (centres undefined), the TGI in assay [1], in assay [2], in assay [3], in [4], in assay [5] and in assay [6] was over 100 µM throughout. For the same compound, the TGI in assay [7], in assay [8] and in assay [9] was over 100 µM each time.

For the compound `O=CN1N=C(c2cccc(Nc3ccnc4cc(Cl)ccc34)c2)CC1c1ccc(Cl)cc1` (centres undefined), the GI50 is 0.597 µM in assay [1]; 2.63 µM in assay [2]; 4.73 µM in assay [3]; 0.787 µM in assay [4]; 1.29 µM in assay [5]; 1.2 µM in assay [6]. The GI50 was 3.48 µM in [7] and 0.367 µM in assay [8]. The TGI in assay [1] was 5.29 µM; in [2] it was over 100 µM; in assay [3], over 100 µM; in [4], over 100 µM; in assay [5], 20.7 µM; in assay [6] it was 7.71 µM. In addition, the TGI in [7] is 56.9 µM; in assay [8], 2.13 µM.

As for `COc1ccc(-c2cc(/C=C/C(=O)c3ccc(N)cc3)[nH]n2)cc1`, the GI50 is 1.47 µM in assay [2]; 2.12 µM in assay [3]; 2.07 µM in [4]; 1.24 µM in [5]; 1.25 µM in [6]; 4.72 µM in assay [7]. In addition, the GI50 in [8] is 0.799 µM; in assay [9] it was 2.81 µM. For the same compound, the TGI came out at 9.77 µM in [2]; 5.69 µM in assay [3]; 4.95 µM in assay [4]; 2.57 µM in assay [5]; 2.97 µM in [6]; 18 µM in assay [7]. Besides, the figures for the TGI in [8] and in assay [9] were 6.09 µM and 13 µM, respectively.

For the compound `O=[N+]([O-])/C=C/c1ccc(Cl)cc1[N+](=O)[O-]`, the GI50 was 1.86 µM in [1]; 2.48 µM in [2]; 2.42 µM in assay [3]; 3.42 µM in [4]; 1.95 µM in assay [5]; 12.1 µM in [7]. Further, the GI50 is 1.68 µM in [8], 1.78 µM in assay [9] and 13.2 µM in [10]. Besides, the TGI in assay [1] was 3.67 µM; in assay [2] it was 5.96 µM; in [3], 4.62 µM; in assay [4] it was 33.5 µM; in [5], 3.67 µM; in assay [7], 24.5 µM. The TGI is over 100 µM in assay [8], 3.48 µM in assay [9] and 27.5 µM in assay [10].

On to `Clc1ccc(CN2CCCN(Cc3ccc(Cl)cc3)C2c2cc3ccccc3c3ccccc23)cc1`, for which the TGI in assay [1], in assay [2], in assay [3], in assay [5], in [6] and in assay [7] was over 100 µM in each case. The TGI in [8], in [9] and in assay [10] was over 100 µM in each case.

For the compound `N#[N+]c1ccc(Nc2ccccc2)cc1`, the GI50 in assay [1], in assay [2], in [3], in [5], in assay [6] and in assay [7] was over 50 µg/mL throughout. Besides, the GI50 in [8] and in assay [9] was over 50 µg/mL throughout. The TGI in [1], in [2], in assay [3], in assay [5], in assay [6] and in assay [7] was over 50 µg/mL throughout. Besides, the TGI in assay [8] and in assay [9] was over 50 µg/mL each time.

Consider `CCCCCC[C@H]1C(=O)O[C@H](C)[C@H](NC(=O)c2cccc(NC=O)c2OC)C(=O)O[C@@H](C)[C@@H]1OC(=O)CCC` (tested in a mixture with another compound), for which the GI50 was 9.89 µM in assay [1]; 11.2 µM in assay [2]; 13.1 µM in assay [3]; 4.89 µM in [4]; 8.2 µM in assay [5]; 11.1 µM in assay [6]. Besides, the GI50 was 24.2 µM in assay [7], 3.64 µM in [8] and 13.3 µM in [9]. The TGI came out at 24.3 µM in assay [1]; 35.5 µM in [2]; 27.1 µM in [3]; 25.5 µM in [4]; 21.5 µM in assay [5]; 24.9 µM in [6]. The TGI was determined as 66.1 µM in assay [7], 18.8 µM in assay [8] and 29.6 µM in assay [9].
